Laboratory results: patent publication US5834259A, “Process and composition for preparing D-aspartic acid” (Monsanto Company, priority 1996, dated 1998)

Legend:
Type in all cases: biochemical, E. coli K12
[1] = biological target: T1, L-aspartate-α-decarboxylase (Escherichia coli, UniProt P0A790); test: Temperature study, 50° C. (Example 9); settings: 1.0M, 100 g/l cells
T1 construct: expressed in transfected cells; host or cells: E. coli W3110 transformed with pIF309 = strain NS3291 (ATCC 98675), whole cells
Description: 133.1 g (1 mol) of D/L-aspartic acid was dissolved in deionized H2 O and the pH was adjusted to 7.0 with 10N NaOH, approximately 100 ml. Cells, freshly thawed from -80° C., were added to achieve a final concentration of 100 g/l. Three 2 L fermentors were each charged with 963 ml of substrate solution and 137 ml of cells and then heated to 37° C. and 45° C. while mixing at 300 rpm or heated to 50° C. while mixing at 450 rpm. Samples, approximately 1 ml, were removed over time and pH adjusted to 7.0 with either NaOH or HCl. After centrifugation to remove cells, the supernatant fluid was analyzed for both D- and L-aspartic acid.

[2] = biological target: T1, L-aspartate-α-decarboxylase; test: 1.0M D/L-aspartate, 50 g/l cells, reaction B (Example 6); settings: 37° C.
Description: (§1) 1.0M D/L-aspartate was tested as a substrate for two enzyme cell loads, 100 g/l cells, referred to here as reaction "A", and 50 g/l cells, referred to here as reaction "B".
(§2) 133.1 g of D/L-aspartic acid was dissolved in approximately 600 ml deionized H2 O and pH was adjusted to 7.0 with NaOH, using 100 ml of 10N NaOH and a small amount of 1.0N NaOH. The substrate for reaction A was brought to 963 ml with deionized H2 O. The reaction was started with 137 ml cells that were stored in the cold room. For reaction B, the substrate was brought to a volume of 981.5 ml. The reaction was started with […] cells.
(§3) Both reactions were carried out in 2 L fermentors at pH 7.0 without constant adjustments and at 37° C. Samples were removed over time, centrifuged and the supernatant fluid was diluted and submitted for D- and L-aspartic acid HPLC analysis.

[3] = biological target: T1, L-aspartate-α-decarboxylase; test: Activity towards D/L-glutamate and D/L-alanine, D/L-aspartate as control (Example 8); settings: for concentration in supernatant fluid / percent remaining: racemate substrate, pH 7.0
Description: D/L-aspartate was run as a control.
Substrates were prepared by dissolving solid amino acid racemate in approximately 75 ml deionized H2 O and adjusting the pH to 7.0 with 10N NaOH. The volume was then brought to 100 ml with deionized H2 O. The cells used were stored frozen for about 1 month and then thawed and stored in a refrigerator for about 1 month prior to running the experiments.
The reaction was run the same as described in the prior Examples. Samples of supernatant fluid, approximately 0.20 ml, were removed over time, centrifuged and stored frozen before analysis by HPLC as described in the prior Examples.

[4] = biological target: T1, L-aspartate-α-decarboxylase; test: NH4OH neutralized 1.0M D/L-aspartate substrate (Example 7); settings: for concentration in supernatant fluid / percent remaining: 1.0M, NH4OH neutralized, 37° C.
Description: Cells were stored frozen at -80° C. 133.1 g (1 mol) D/L-aspartic acid was dissolved in approximately 600 ml deionized H2 O and adjusted to a pH of about 7 with concentrated NH4 OH. The final volume of substrate was brought to 963 ml to which was added 137 ml cells, freshly thawed. The mixture was placed in the 2 L fermentor and the temperature adjusted to 37° C. No automatic pH control was used, however, the pH was monitored as samples were removed and the pH adjusted with 50% NH4 OH. Samples, approximately 1 ml, were removed periodically, centrifuged, and the supernatant fluid was stored frozen prior to diluting and HPLC analysis.

[5] = biological target: T1, L-aspartate-α-decarboxylase; test: 1.0M D/L-aspartate, 100 g/l cells, reaction A (Example 6); settings: for concentration in supernatant fluid: 1.0M, 100 g/l cells, 37° C.
Description: as §1, §2, §3

N[C@@H](CC(=O)O)C(=O)O [L-Asp, L-aspartic acid]
concentration in supernatant fluid ([1]; 0.000 hr): 100.0 mg/mL
concentration in supernatant fluid ([1]; 1.000 hr): 98.93 mg/mL
percent remaining ([1]; 1.000 hr): 108.9%
concentration in supernatant fluid ([1]; 3.000 hr): 105.7 mg/mL
percent remaining ([1]; 3.000 hr): 83.78%
concentration in supernatant fluid ([1]; 5.0000 hr): 106.0 mg/mL
percent remaining ([1]; 5.0000 hr): 73.63%
concentration in supernatant fluid ([1]; 7.000 hr): 106.6 mg/mL
percent remaining ([1]; 7.000 hr): 73.63%
concentration in supernatant fluid ([1]; 9.000 hr): 107.3 mg/mL
percent remaining ([1]; 9.000 hr): 70.13%
concentration in supernatant fluid ([1]; 13.50 hr): 108.4 mg/mL
percent remaining ([1]; 13.50 hr): 70.54%
concentration in supernatant fluid ([1]; 23.00 hr): 103.3 mg/mL
percent remaining ([1]; 23.00 hr): 65.98%
concentration in supernatant fluid ([1]; 25.00 hr): 109.0 mg/mL
percent remaining ([1]; 25.00 hr): 65.73%
concentration in supernatant fluid ([1]; 27.00 hr): 103.6 mg/mL
percent remaining ([1]; 27.00 hr): 55.48%
concentration in supernatant fluid ([1]; 32.00 hr): 104.4 mg/mL
percent remaining ([1]; 32.00 hr): 53.33%
concentration in supernatant fluid ([1]; 37.50 hr): 106.5 mg/mL
percent remaining ([1]; 37.50 hr): 58.82%
percent remaining ([1]; 47.00 hr): 52.77%
concentration in supernatant fluid ([1]; 52.00 hr): 107.0 mg/mL
percent remaining ([1]; 52.00 hr): 56.28%
concentration in supernatant fluid ([1]; 57.00 hr): 119.4 mg/mL
percent remaining ([1]; 57.00 hr): 66.89%
concentration in supernatant fluid ([1]; 71.00 hr): 104.2 mg/mL
percent remaining ([1]; 71.00 hr): 52.65%
concentration in supernatant fluid ([1]; 77.00 hr): 105.4 mg/mL
percent remaining ([1]; 77.00 hr): 53.35%
concentration in supernatant fluid ([1]; 81.00 hr): 104.6 mg/mL
percent remaining ([1]; 81.00 hr): 52.69%
concentration in supernatant fluid ([1]; 99.75 hr): 108.1 mg/mL
percent remaining ([1]; 99.75 hr): 53.93%
concentration in supernatant fluid ([2]; 0.0000 hr): 57.440 mg/mL
concentration in supernatant fluid ([2]; 2.0000 hr): 53.770 mg/mL
substrate specificity of the enzyme [3]: the only substrate for the enzyme
concentration in supernatant fluid ([3]; 0 hr): 26.810 mg/mL
concentration in supernatant fluid ([3]; 3.5 hr): 14.050 mg/mL
percent remaining ([3]; 3.5 hr): 52.406%
concentration in supernatant fluid ([3]; 8.5 hr): 12.660 mg/mL
percent remaining ([3]; 8.5 hr): 47.221%
concentration in supernatant fluid ([3]; 24 hr): 9.4700 mg/mL
percent remaining ([3]; 24 hr): 35.323%
concentration in supernatant fluid ([3]; 55 hr): 0.3300 mg/mL
percent remaining ([3]; 55 hr, 3300 min): 1.2309%
percent remaining ([3]; 55 hr, listed as L-aspartic acid, 3300 min): 1.23%
concentration in supernatant fluid ([4]; 0.0000 hr): 55.740 mg/mL
concentration in supernatant fluid ([4]; 3.0000 hr): 53.380 mg/mL
percent remaining ([4]; 3.0000 hr): 95.766%
concentration in supernatant fluid ([4]; 6.0000 hr): 56.370 mg/mL
percent remaining ([4]; 6.0000 hr): 101.13%
concentration in supernatant fluid ([4]; 9.0000 hr): 56.680 mg/mL
percent remaining ([4]; 9.0000 hr): 101.69%
concentration in supernatant fluid ([4]; 19.000 hr): 59.270 mg/mL
percent remaining ([4]; 19.000 hr): 106.33%
concentration in supernatant fluid ([4]; 23.500 hr): 54.930 mg/mL
percent remaining ([4]; 23.500 hr): 98.547%
concentration in supernatant fluid ([4]; 28.000 hr): 52.620 mg/mL
percent remaining ([4]; 28.000 hr): 94.403%
concentration in supernatant fluid ([4]; 32.500 hr): 50.900 mg/mL
percent remaining ([4]; 32.500 hr): 91.317%
concentration in supernatant fluid ([4]; 43.000 hr): 53.520 mg/mL
percent remaining ([4]; 43.000 hr): 96.017%
percent remaining ([4]; 49.000 hr): 91.676%
rate of L-Asp utilization ([4]; NH4+ salt as compared to the Na+ salt): slower
concentration in supernatant fluid ([5]; 0.0000 hr): 54.850 mg/mL
concentration in supernatant fluid ([5]; 0.0000 hr, listed as L-aspartate): 53.6 mg/mL
concentration in supernatant fluid ([5]; 2.0000 hr): 49.340 mg/mL
concentration in supernatant fluid ([5]; 4.5000 hr): 50.710 mg/mL
concentration in supernatant fluid ([5]; 7.0000 hr): 50.230 mg/mL
concentration in supernatant fluid ([5]; 22.500 hr): 54.490 mg/mL
concentration in supernatant fluid ([5]; 24.000 hr): 50.780 mg/mL
concentration in supernatant fluid ([5]; 31.000 hr): 51.450 mg/mL
concentration in supernatant fluid ([5]; 37.500 hr): 53.850 mg/mL
concentration in supernatant fluid ([5]; 47.000 hr): 52.370 mg/mL
concentration in supernatant fluid ([5]; 50.500 hr): 51.080 mg/mL
concentration in supernatant fluid ([5]; 53.800 hr): 46.500 mg/mL
concentration in supernatant fluid ([5]; 58.000 hr): 50.040 mg/mL
concentration in supernatant fluid ([5]; 70.000 hr): 52.400 mg/mL
concentration in supernatant fluid ([5]; 72.000 hr): 50.430 mg/mL
concentration in supernatant fluid ([5]; 72.000 hr, listed as L-aspartate): 5.39 mg/mL
reduction of L-aspartate ([5]; after 72.0 hours, 1.0M substrate): 90%
